Consider two compounds from publication PMC10606064, “2-Aminothiazole-Flavonoid Hybrid Derivatives Binding to Tau Protein and Responsible for Antitumor Activity in Glioblastoma” (International Journal of Molecular Sciences, 2023).

The subject of one assay is U87 shTau cells. The experiment in a line: Cell cycle by flow cytometry (propidium iodide), U87 shTau. Particulars: 48 h. The format is cell-based, human. The method, then:
Measurements of cell cycle from DNA content were performed by flow cytometry as described before. Briefly, 4.10^5 cells in exponential growth were seeded in 6-well plates. After 24 h, they were treated with 10 µM of compounds for 48 h. Nocodazole was used as a positive control with a concentration of 1 µM. The trypsinized cells were harvested and then centrifuged (1200 rpm, 5 min, at room temperature). The cell pellet was resuspended in 1 mL of PBS 1× at 4 °C, and then an extra 4 mL of cold PBS was added to wash the pellet. Cells were then centrifuged again (1200 rpm, 5 min, at 4 °C). To fixate the cells, the pellet was resuspended in 100 µL of cold 70% ethanol, then an additional 900 µL was added and cells were incubated for 30 min at −20 °C. After that, 9 mL of cold PBS was added, and cells were centrifuged (2000 rpm, 5 min, at 4 °C) to remove ethanol. The cell pellet was then resuspended in the staining mix containing 50 µg.mL^−1 of propidium iodide (Molecular Probes, Paris, France) and 100 µg.mL^−1 of RNAse A (Sigma-Aldrich, Saint-Quentin-Fallavier, France) in PBS for 20 min at room temperature in darkness. Samples were analyzed on a Beckman–Coulter–Gallios flow cytometer using the Kaluza for Gallios Acquisition v1.0 software. Propidium iodide was excited at 488 nm, and fluorescence was analyzed at 620 nm on channel FL-3. For the analysis, there is considerable overlap between early S phase and G1 and between late S phase and G2/M due to broadening of the distribution caused by variability in the staining of the cells and instrumental variability. Therefore, the percentages of cells in the sub-G1, G1, S, and G2/M phases of the cell cycle were calculated using the Watson et al. algorithm for cell cycle analysis in Kaluza for Gallios Analysis v2.1 software. The software automatically adjusted gates based on PI median fluorescence intensity of the cells and their frequency among total cells. The number of cells in each phase was divided by the total number of analyzed cells, and the values were reported as percentage of the total cells for each cell cycle phase.
A general note: In flow cytometry, cells or beads pass a laser one at a time.

Assay [1] relates to LC3 proteins in U87 shCTRL and shTau cells. The experiment in a line: LC3-II/LC3-I ratio by Western blot (autophagosomes). In kind it is cell-based, human. Particulars: both cell types, 5 µM, 48 h. The method, then:
Cells were lysed with freshly made RIPA buffer derivative (4.3 mL of TBS 1×, 50 µL of SDS 10%, 10 µL of EDTA 0.5 M, 500 µL of Triton 10×, and 1% inhibitors of protease and phosphatase). After 30 min of lysis at 4 °C under agitation, lysates were centrifuged at 10,000× g for 10 min at 4 °C. Equivalent amounts of proteins from the supernatant fraction were subjected to Western blot analysis. Protein samples were loaded (40 μg/lane) and separated on 10 or 12% sodium dodecyl sulfate-polyacrylamide gels. The separated proteins were transferred onto nitrocellulose blotting membrane using the Bio-Rad transfer system. […] The band intensity was quantified using the ImageJ v1.50g software. […] The band intensity was quantified using the NIH ImageJ v1.50g software.
Figure 4 Compounds (2) and (9) affect autophagy function machinery and alter mitochondrial morphology. […] (A) Quantities of autophagy LC3 proteins were analyzed by Western blot of U87 shCTRL and U87 shTau cells: for each sample, the ratio of the amount of mature (LC3-II) to immature (LC3-I) isoform was calculated as relative fold of the reference value (with or without the compound); significant statistical differences were calculated using one-way ANOVA with a post hoc Tukey–Kramer HSD test with (*) p < 0.01 from three independent experiments; ns: non-significant. […]
On the technique in general: A western blot detects proteins with antibodies after separation by electrophoresis.

As to `Nc1nc2ccc3oc(-c4cccc(Oc5ccccc5)c4)cc(=O)c3c2s1` [Compound 2, 2-amino-7-(3-phenoxyphenyl)-9H-chromeno [6,5-d]thiazol-9-one], in the assay on U87 shTau cells (10 µM), the “effect on cell cycle progression” value is “no significant effect on cell cycle progression”. Further, the “ratio of mature LC3-II to immature LC3-I” value in assay [1] is listed as “no statistically significant changes in ratios”.

As to `Nc1nc2ccc3oc(C(=O)O)cc(=O)c3c2s1` [Compound 5], in the assay on U87 shTau cells (compounds 10 µM, NOC 1 µM), the “%G1 (cells in G1 phase)” value turned out to be 62 ± 5% and the “%G2/M (cells in G2/M phase)” value was 25 ± 1%. The “ratio of mature LC3-II to immature LC3-I” value in assay [1] is “no statistically significant changes in ratios”.
